Laboratory results as given in US20060051295A1, “Estrogen receptor interaction with a transcription factor” (priority 2002, published 2006).

System: IL-6 promoter
Experiment: IL-6 promoter reporter in U-2 OS with ERα and NF-κB proteins / c/EBPβ
Format: cell-based, human
Procedure: To determine the role of functional ERα/c-Rel interactions in repression of IL-6 production by estrogens, we analysed the effect of various combinations of ERα and NF-κB proteins on IL-6 production using a reporter construct containing the promoter of the IL-6 gene.
For transient transfections, cells were seeded in 6-well plates (2.10^5 cells/well). After two or three days the cells were transfected with reporter, expression vectors and β-galactosidase control vector. Two different experimental settings were used. For testing transrepression of IL-1β induced promoter activity, cells were transfected with 1 μg reporter construct, 1 μg expression vector (containing either ERα, ERβ or GR), and 0.25 μg of β-galactosidase control plasmid. For testing transrepression in combination with c-Rel or ReLA overexpression, cells were transfected with 1 μg reporter construct, 1 μg expression vector (containing either ERα, ERβ or GR) and 0.1 or 1.0 μg expression vector containing c-Rel or RelA and 0.25 μg of β-galactosidase control vector. Equivalent amounts of DNA were obtained by adding the appropriate expression vector that lacks an insert. Transient transfection was performed using lipofectin reagent (Life Technologies). […] The transfected cells were incubated overnight with test compounds prior to cell lysis. Measurement of luciferase and P-galactosidase activity were performed using respectively the luciferase assay system (Promega) and Galacto-light plus (Tropix) according to the manufacturers' protocols and measured on the Victor 1420 multilabel counter, Wallac.

C[C@]12CC[C@@H]3c4ccc(O)cc4CC[C@H]3[C@@H]1CC[C@@H]2O [Org E2, 17β-estradiol]
luciferase activity, IL-6 promoter reporter (ERα + C/EBPβ): 2585 | luciferase activity, IL-6 promoter reporter (ERα + RelA): 19401 | luciferase activity, IL-6 promoter reporter (ERα + RelA + c/EBPβ): 92837 | luciferase activity, IL-6 promoter reporter (ERα + RelA + p50): 8232 | luciferase activity, IL-6 promoter reporter (ERα + c/EBPβ + p50): 1724 | luciferase activity, IL-6 promoter reporter (ERα + cRel): 1807 | luciferase activity, IL-6 promoter reporter (ERα + cRel + RelA): 23381 | luciferase activity, IL-6 promoter reporter (ERα + cRel + c/EBPβ): 6459 | luciferase activity, IL-6 promoter reporter (ERα + cRel + p50): 1814 | luciferase activity, IL-6 promoter reporter (ERα + p50): 1447 | luciferase activity, IL-6 promoter reporter (ERα, no NF-κB protein): 1310
